Test results reported in PMC10452460, “In Silico, In Vitro, and In Vivo Investigations on Adapalene as Repurposed Third Generation Retinoid against Multiple Myeloma and Leukemia” (Cancers, 2023).

Target: T1, c-MYC (Homo sapiens, UniProt P01106)
T1 construct: recombinant human c-MYC protein (ab169901, Abcam)
Experiment: microscale thermophoresis with Blue-NHS labelled c-MYC ([…])
Format: binding

T1 sequence (P01106 16-454): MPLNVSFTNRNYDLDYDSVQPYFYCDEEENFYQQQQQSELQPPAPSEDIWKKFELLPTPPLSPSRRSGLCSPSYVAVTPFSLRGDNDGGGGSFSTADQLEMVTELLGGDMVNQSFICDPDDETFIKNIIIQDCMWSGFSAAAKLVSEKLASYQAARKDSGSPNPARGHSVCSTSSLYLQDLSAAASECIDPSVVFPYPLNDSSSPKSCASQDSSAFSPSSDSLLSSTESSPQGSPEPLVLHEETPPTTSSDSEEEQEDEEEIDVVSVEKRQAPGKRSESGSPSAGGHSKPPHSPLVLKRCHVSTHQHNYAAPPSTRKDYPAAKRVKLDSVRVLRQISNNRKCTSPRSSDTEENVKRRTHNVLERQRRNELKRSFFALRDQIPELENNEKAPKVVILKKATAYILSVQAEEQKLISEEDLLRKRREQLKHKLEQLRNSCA

Kd: 3.05 µM
Compound: COc1ccc(-c2ccc3cc(C(=O)O)ccc3c2)cc1C12CC3CC(CC(C3)C1)C2 [adapalene]
